Key:
N-type/Cav2.2 channels = target: T1, N-type/Cav2.2 channels (Homo sapiens, UniProt Q00975); experiment: Whole-cell patch-clamp recording of barium currents carried by calcium channels in primary dorsal root ganglion neurons; assay type: cell-based; conditions: 0.5 Hz stimulation, 100-ms steps to 0 mV from -70 mV, DRG neurons with Cm <40 pf
T1 construct: Primary dorsal root ganglion neurons were isolated using standard techniques; endogenous in cells
Experimental: Primary dorsal root ganglion neurons were isolated using standard techniques and placed in Ca^2+/Mg^2+ free phosphate-buffered saline (PBS). Hemisection of the spinal column and cord was performed and the ganglia were uncovered by gently lifting the spinal cord. They were placed in a dissociation solution (PBS) containing 1 mg/ml Collagenase (type XI) and trypsin (type II-S). Ganglia were incubated in the dissociation solution for 20 minutes at room temperature, followed by 20 minutes at 37° C. Ganglia were washed in culture medium, Dulbecco's Minimum essential medium (DMEM), supplemented with fetal calf serum (10%, Gibco), penicillin/strepromycin and glutamine (Glutamax, Gibco). Cells were dispersed by trituration and plated on poly-L-lysine-coated 35-mm dishes (BD Bioscience). Cells were kept in culture in a humidified atmosphere (37° C., 5% CO2) for up to 4 days for electrophysiological recordings. Unless otherwise noted, all reagents were purchased from Sigma-Aldrich.
Barium currents carried by calcium channels were recorded using the whole-cell configuration of the patch-clamp technique. All experiments were carried out at room temperature. Cells were bathed in an external solution containing, in mM: TEA-CI, 140; BaCl2, 5; MgCl2, 1; HEPES, 10; pH 7.3 adjusted with TEA-OH. Ba^2+ was used as a charge carrier to prevent the run-down caused by Ca^2+-activated inactivation of Ca^2+ channels. […] Electrophysiological recordings were generated and acquired with a patch-clamp amplifier (Axopatch 200B, or Multiclamp 7; Molecular devices) connected to a personal computer. Online and offline analysis was carried out using the pClamp software suite (v.9, Molecular Devices). Compounds were all prepared from 100 mM stocks in 100% dimethyl sulfoxide (DMSO) and further diluted in external solution to achieve the desired final concentration. Final DMSO concentration was always <0.1%. For the assessment of activity of the compounds, only cells with a membrane capacitance (Cm)<40 pf were used, as the Ca2+ current in these cells is carried mostly through N-type/Cav2.2 channels. Cell membrane potential was held at −70 mV and currents were elicited by a series of 100-ms steps to 0 mV, at a frequency of 0.1 Hz. After the establishment of a steady baseline current, the compound was applied to the bath. When the block induced by the compound reached a steady level, the frequency was then increased to 0.5 Hz, to assess use-dependence. After stabilization of the high frequency block, step depolarizations were stopped and cell membrane potential was kept at −70 mV for 100-120 s, after which 0.1 Hz stimulation (100 ms, 0 mV) was elicited, to assess recovery of the block. ω-conotoxin GVIA (100 nM; Alomone labs) was added at the end of the experiment to quantify the remaining N-type current. Selectivity of the compounds over non-N-type currents was studied using similar stimulation protocols, in a bath solution containing ω-conotoxin GVIA (100 nM).

[1] = system: α2-δ voltage-gated calcium channel; conditions: compared with gabapentin; cited from earlier work
[2] = DRG neuron, compound concentration 1 uM

T1 sequence (Q00975 whole entry): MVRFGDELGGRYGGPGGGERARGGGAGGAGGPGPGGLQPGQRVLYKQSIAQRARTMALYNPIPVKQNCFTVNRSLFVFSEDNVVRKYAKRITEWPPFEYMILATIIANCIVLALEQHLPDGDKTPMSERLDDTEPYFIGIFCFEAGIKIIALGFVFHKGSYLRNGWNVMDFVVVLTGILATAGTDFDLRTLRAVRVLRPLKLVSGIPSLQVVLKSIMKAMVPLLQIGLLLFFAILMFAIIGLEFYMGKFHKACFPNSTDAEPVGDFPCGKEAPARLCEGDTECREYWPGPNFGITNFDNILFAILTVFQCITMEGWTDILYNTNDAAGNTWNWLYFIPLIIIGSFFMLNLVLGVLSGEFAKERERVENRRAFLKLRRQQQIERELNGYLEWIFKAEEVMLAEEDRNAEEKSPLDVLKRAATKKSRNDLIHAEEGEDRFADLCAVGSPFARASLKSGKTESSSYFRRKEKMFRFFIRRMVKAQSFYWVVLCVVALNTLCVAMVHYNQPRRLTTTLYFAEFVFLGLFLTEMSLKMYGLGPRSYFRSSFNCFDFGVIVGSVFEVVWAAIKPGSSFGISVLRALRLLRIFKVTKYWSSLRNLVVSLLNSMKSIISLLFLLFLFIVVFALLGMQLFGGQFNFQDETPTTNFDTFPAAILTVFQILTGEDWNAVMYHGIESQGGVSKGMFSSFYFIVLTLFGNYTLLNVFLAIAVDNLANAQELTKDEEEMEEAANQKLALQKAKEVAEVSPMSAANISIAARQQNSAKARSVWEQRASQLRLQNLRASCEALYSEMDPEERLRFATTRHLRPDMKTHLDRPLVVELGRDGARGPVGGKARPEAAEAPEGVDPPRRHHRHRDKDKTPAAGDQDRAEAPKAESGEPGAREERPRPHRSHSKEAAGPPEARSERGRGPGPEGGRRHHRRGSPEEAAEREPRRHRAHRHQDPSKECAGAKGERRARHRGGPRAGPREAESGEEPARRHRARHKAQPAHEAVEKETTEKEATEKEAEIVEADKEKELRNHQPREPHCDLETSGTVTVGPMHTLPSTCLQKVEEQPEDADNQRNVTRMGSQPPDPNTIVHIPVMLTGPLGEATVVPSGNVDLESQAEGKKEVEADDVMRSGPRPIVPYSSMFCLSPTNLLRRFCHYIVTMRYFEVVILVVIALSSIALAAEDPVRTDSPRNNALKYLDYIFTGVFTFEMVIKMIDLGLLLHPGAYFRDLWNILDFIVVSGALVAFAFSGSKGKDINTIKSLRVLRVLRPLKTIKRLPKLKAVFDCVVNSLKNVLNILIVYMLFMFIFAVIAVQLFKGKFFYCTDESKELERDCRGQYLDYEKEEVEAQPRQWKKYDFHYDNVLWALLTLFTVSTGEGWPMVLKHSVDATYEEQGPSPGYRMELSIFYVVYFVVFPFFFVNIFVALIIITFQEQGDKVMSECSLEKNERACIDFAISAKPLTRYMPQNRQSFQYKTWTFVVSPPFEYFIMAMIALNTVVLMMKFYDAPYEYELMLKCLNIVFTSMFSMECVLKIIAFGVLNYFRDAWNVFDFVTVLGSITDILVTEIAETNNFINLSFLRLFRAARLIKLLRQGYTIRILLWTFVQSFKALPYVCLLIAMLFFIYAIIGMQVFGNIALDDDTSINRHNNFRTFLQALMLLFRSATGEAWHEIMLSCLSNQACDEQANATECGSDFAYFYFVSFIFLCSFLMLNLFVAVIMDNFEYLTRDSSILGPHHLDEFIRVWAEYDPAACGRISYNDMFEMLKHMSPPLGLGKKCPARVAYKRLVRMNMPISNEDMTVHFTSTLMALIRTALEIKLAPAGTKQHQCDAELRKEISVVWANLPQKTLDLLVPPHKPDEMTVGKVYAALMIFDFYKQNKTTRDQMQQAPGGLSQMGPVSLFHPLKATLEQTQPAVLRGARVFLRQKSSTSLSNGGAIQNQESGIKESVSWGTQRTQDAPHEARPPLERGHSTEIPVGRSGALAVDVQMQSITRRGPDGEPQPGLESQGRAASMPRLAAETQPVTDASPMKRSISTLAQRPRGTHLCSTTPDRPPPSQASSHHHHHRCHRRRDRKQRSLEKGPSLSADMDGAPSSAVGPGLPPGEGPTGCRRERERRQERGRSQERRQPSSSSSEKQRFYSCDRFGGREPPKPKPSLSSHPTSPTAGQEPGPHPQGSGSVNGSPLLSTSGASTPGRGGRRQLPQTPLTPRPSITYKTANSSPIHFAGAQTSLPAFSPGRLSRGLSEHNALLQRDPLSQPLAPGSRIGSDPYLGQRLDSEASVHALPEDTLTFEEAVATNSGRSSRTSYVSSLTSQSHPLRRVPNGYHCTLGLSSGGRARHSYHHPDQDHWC
T1 sequence (P54289 25-956 partner limits assumed): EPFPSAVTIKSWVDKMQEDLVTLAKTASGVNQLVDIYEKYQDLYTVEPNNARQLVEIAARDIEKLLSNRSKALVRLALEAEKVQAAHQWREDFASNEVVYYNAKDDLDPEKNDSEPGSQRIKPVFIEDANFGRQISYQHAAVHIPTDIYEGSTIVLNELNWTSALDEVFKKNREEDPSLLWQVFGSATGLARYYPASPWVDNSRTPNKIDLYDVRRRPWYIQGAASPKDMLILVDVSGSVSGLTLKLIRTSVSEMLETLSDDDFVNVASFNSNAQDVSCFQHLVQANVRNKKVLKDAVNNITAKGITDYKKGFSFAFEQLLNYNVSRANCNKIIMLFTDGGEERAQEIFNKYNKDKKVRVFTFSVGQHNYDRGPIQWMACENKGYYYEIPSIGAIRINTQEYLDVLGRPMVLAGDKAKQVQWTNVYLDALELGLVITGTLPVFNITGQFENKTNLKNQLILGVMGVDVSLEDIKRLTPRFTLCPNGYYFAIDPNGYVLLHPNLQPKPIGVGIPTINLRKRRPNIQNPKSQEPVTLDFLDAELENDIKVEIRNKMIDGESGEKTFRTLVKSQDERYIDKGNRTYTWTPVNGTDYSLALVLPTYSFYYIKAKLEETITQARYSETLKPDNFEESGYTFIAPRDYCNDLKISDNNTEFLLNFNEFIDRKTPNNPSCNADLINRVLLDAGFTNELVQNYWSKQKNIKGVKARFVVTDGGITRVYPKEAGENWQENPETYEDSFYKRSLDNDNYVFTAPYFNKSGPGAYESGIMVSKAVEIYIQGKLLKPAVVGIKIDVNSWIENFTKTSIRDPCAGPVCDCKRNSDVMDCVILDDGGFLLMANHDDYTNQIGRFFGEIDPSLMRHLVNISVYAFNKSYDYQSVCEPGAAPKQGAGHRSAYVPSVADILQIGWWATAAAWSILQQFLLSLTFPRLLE
T1 sequence (P54289 957-1103 partner limits assumed): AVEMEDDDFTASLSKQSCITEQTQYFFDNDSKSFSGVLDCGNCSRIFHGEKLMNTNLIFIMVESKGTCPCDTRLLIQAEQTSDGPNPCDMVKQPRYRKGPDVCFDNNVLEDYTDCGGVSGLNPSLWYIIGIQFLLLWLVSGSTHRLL

O=C(O)C(=O)c1c[nH]c2cc(F)ccc12 [Compound 20, 2-(6-fluoro-1H-indol-3-yl)-2-oxoacetic acid] showed an inhibition at 1 µM (N-type/Cav2.2 channels; [2]) of 55%.

COc1ccc2c(C(=O)C(=O)O)c[nH]c2c1 [Compound 31, 2-(6-methoxy-1H-indol-3-yl)-2-oxoacetic acid] showed an inhibition at 0.1 µM (N-type/Cav2.2 channels; DRG neuron, compound concentration 0.1 uM) of 36%.

With COc1ccc2c(C(=O)C(=O)N3CCOCC3)c[nH]c2c1 [Compound 57, 1-(6-methoxy-1H-indol-3-yl)-2-morpholinoethane-1,2-dione] the inhibition at 1 µM (N-type/Cav2.2 channels; [2]) was 44%.

In the case of COc1ccc2c(C(=O)C(=O)N3CCN(C)CC3)c[nH]c2c1 [Compound 77, 1-(6-methoxy-1H-indol-3-yl)-2-(4-methylpiperazin-1-yl)ethane-1,2-dione], the inhibition at 1 µM (N-type/Cav2.2 channels; [2]) was 55%.

In the case of CC(C)C[C@H](CN)CC(=O)O [Pregabalin, pregabalin], the “potency in binding affinity to the α2-δ voltage-gated calcium channel relative to gabapentin” value [1] is given as “six-times more potent than gabapentin”.

In the case of “ethyl 2-(6-methoxy-1H-indol-3-yl)-2-oxoacetate [Compound 40]”, the “% Inhibition at 0.5 Hz” value (N-type/Cav2.2 channels; compound concentration 1 uM) was 57%.
